{"source": "paper PMC10035370", "about": "“Targeting Tumor Angiogenesis with the Selective VEGFR-3 Inhibitor EVT801 in Combination with Cancer Immunotherapy” (Cancer Research Communications, 2022)", "key": {"[1]": {"system": "NCI-H1703 tumor xenografts", "assay": "NCI-H1703 subcutaneous xenograft tumor mouse model", "format": "in vivo, mice", "conditions": "30 mg/kg twice per day", "experimental": "A total number of 40 homozygous NOD.CB17 Prkdc^scid/NCrHsd mice were used for the xenograft tumor model. On the day of implantation, NCI-H1703 cells were harvested and suspended at a concentration of 1 × 10^8 cells per mL in an equal mix of Cultrex:RPMI without supplements. A volume of 100 μL was injected into the right hind flank of each animal. Tumor volumes were monitored until mean tumor volume reached 150 mm^3. Then, mice were stratified into four treatment groups of each 10 mice and orally dosed twice per day with either EVT801 30 mg/kg and EVT801 vehicle [Soluplus (BASF)/water/hydroxypropylcellulose SL (Nisso America)], or 30 mk/kg pazopanib and pazopanib vehicle (0.5% Hydroxypropyl methylcellulose trimellitate (HPMCT) + 0.1% Tween-80). A period of 8 hours was observed between the first and second daily dose."}, "hLMVEC": {"system": "hLMVEC", "assay": "Growth factor-induced hLMVEC proliferation", "format": "cell-based, human", "conditions": "for IC50: Homo sapiens", "experimental": "hLMVEC were seeded in white cell culture-treated flat and clear bottom multi-well plates and incubated at 37 °C overnight, before compounds were added. After incubation for 72 h at 37 °C, plates were equilibrated to ambient temperature for 1 h, and CellTiterGlo reagent (Promega) was added. After approximately 1h, luminescence was measured using a luminometer. Curves were fitted via sigmoidal dose response curves, and IC50 values were determined."}, "BNL-R3 tumors": {"system": "BNL-R3 tumors", "assay": "VEGFR3 expressing BNL tumor model (BNL-R3)", "format": "in vivo, mice", "experimental": "A total number of 60 female BALB/c mice were injected subcutaneously on the flank with 2 x 10^6 cells in 250 μL PBS buffer/growth factor reduced Matrigel®. Mice were then kept in a post-operative cabinet at 28 °C until complete recovery. Assuming an ovoid form, tumor volume in mm3 was calculated using digital callipers according to the following formula: V = 0.52 x (width)² x length. On day 7, mice were randomized into 4 groups of 11 mice and 1 group with 16 mice, according to mean tumor volume via cage equalizer software. Subsequently, tumor volume was measured on days 11, 13, 15, 18, 19 and 21 following tumor cell injection. The selected groups received vehicle or EVT801 orally in a volume of 10 mL/kg. Mice body weight was measured daily before dosing. On the day of termination, mice were anaesthetized to facilitate 500 μL blood withdrawal by puncture of the jugular vein. Three mice per group and per time point (i.e., 0.5, 2, 4 and 24 h after the last dosing) were allocated for pharmacokinetic study. Spleens of 3 mice per group were collected, and immune cell populations were separated from dissociated splenocytes via MACS, and subjected to flow cytometry analysis."}, "VEGFR-3 [2]": {"molecular_target": "T1, VEGFR-3 (Mus musculus, UniProt P35917)", "T1 construct": "expressed in transfected cells; host or cells: HEK293T (inferred from the general description of the cellular assay)", "T1 sequence (P35917 25-1363)": "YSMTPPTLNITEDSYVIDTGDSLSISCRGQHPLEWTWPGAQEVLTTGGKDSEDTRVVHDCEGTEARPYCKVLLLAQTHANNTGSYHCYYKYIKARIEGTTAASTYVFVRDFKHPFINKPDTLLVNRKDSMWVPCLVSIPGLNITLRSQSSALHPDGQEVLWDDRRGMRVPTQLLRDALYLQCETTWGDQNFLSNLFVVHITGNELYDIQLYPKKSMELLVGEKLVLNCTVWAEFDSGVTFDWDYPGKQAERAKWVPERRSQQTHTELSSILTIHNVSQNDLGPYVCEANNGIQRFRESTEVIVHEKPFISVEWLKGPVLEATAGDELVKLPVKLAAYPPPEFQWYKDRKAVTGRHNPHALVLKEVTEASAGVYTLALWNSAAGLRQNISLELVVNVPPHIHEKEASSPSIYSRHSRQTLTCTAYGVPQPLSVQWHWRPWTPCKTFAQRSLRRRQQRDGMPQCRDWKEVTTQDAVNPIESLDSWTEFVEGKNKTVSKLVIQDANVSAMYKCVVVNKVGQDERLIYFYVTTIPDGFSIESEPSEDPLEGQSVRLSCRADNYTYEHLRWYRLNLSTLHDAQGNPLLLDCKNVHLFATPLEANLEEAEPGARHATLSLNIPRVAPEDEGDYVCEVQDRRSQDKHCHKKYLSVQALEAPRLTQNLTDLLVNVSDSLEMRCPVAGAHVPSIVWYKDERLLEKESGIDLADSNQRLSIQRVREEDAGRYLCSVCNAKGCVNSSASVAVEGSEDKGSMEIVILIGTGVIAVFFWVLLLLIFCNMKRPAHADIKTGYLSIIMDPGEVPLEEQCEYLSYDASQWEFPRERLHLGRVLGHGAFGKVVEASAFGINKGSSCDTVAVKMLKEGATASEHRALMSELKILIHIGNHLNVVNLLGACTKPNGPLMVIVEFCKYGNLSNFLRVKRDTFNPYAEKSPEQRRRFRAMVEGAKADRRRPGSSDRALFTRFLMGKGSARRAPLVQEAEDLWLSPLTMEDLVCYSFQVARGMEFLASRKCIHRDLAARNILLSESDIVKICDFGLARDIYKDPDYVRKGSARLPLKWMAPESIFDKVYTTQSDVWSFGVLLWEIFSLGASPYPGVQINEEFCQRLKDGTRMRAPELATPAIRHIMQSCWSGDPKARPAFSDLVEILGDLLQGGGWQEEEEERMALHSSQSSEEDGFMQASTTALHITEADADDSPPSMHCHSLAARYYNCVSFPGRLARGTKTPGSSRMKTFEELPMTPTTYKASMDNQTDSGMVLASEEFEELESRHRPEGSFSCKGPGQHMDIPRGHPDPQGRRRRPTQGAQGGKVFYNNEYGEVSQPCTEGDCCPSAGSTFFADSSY", "assay": "Cellular VEGFR-3 autophosphorylation assay, mouse receptor", "format": "cell-based", "conditions": "read-out: IC50 in cellular assays, VEGFR-3 autophosphorylation, mouse receptor", "experimental": "(§1) Transfection of HEK293T cells and Ba/F3 cells with VEGFR-1-Flag, VEGFR-2-Flag or VEGFR-3-Flag expression constructs was performed using Fugene-6 (Roche) as per manufacturer’s protocol. Briefly, Fugene-6 was pre-incubated with Opti-Mem (Gibco) before adding DNA. After 24 h, media was replaced with serum-free culture media containing 0.2 % BSA. On the next day, cells were incubated for 1 h in 1 mM orthovanadate, harvested, dissociated and distributed at 4 x 10^5 cells in 5 mL for HEK-VEGFR-1 and HEK-VEGFR-3, and 5 x 10^4 cells per 5 mL for HEK VEGFR-2 in the presence of EVT801 or SAR401849. After 30 min, the reaction was stopped by the addition of cold PBS supplemented with 1 mM orthovanadate. Cells were then lysed with 150 μl of RIPA buffer for 15 min at 4°C, then centrifuged for 10 min at 10,000 g. Supernatants (75 μl) were distributed in duplicate on 96 well plates that were precoated with the anti-flag, and left for 1 h at room temperature. After 3 washes, the anti-phosphotyrosine conjugated to the HRP was added and incubated for 1 h at room temperature. Wells were then washed 3 times with TBS buffer containing 0.5 % Tween-20 and 2 mM MgCl2. The reaction was stopped with 50 μL of 2 N H2SO4, and the signal was read with Envision at the wavelengths of 485 nm and 530 nm."}, "ERK1/2 phosphorylation": {"system": "ERK1/2 phosphorylation", "assay": "VEGF-C-induced ERK1/2 phosphorylation in hLMVEC", "format": "cell-based", "conditions": "Homo sapiens, read-out: IC50, inhibition of VEGF-C-induced ERK1/2 phosphorylation", "experimental": "hLMVECs were plated in 6-well tissue culture plates at a density of 2 x 10^5 cells for 48 h. Cells were then serum deprived for 2 h and either stimulated or mock stimulated for 10 min with VEGFC (500 ng/mL) in the presence or absence of EVT801. Then, cells were lysed and subjected to phospho-MAPK array or to phospho-ERK ELISA according to manufacturer’s instructions."}, "VEGFR-2": {"molecular_target": "VEGFR-2 (Homo sapiens, UniProt P35968)", "sequence (P35968 20-1356)": "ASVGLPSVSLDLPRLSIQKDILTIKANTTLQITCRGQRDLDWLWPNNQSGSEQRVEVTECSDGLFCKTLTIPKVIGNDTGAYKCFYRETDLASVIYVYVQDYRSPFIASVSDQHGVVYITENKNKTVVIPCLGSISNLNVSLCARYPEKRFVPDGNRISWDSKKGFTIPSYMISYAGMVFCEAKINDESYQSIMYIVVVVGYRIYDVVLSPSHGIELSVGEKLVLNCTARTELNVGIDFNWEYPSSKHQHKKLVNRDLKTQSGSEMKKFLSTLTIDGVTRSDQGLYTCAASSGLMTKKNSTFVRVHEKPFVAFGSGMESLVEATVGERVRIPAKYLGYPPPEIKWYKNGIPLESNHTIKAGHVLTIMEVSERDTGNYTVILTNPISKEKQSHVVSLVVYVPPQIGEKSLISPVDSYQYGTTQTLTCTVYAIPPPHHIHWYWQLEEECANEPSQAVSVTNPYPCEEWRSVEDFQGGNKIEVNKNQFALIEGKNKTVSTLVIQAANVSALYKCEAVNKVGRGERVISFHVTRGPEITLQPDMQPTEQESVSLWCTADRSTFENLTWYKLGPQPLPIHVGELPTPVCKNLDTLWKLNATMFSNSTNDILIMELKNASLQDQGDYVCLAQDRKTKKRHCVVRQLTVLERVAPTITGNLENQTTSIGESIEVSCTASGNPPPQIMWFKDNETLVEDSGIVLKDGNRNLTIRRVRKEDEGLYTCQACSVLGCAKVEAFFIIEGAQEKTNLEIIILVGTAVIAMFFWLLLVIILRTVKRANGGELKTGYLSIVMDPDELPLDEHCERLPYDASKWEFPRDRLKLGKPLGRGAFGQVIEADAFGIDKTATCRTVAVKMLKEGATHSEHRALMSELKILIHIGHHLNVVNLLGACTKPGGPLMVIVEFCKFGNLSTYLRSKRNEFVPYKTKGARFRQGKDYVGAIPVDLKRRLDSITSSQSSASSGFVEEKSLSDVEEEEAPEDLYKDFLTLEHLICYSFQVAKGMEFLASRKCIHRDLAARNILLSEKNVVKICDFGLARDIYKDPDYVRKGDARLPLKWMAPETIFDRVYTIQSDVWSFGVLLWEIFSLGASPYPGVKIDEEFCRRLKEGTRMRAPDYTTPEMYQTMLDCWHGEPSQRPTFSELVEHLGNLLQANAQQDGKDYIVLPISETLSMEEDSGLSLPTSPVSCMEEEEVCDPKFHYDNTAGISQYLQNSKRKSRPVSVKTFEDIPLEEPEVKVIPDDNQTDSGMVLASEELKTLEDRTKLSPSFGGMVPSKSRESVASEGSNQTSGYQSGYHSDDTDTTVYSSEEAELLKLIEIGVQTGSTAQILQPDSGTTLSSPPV", "assay": "Cellular autophosphorylation assay, HEK293 cells transiently expressing VEGFR-2", "format": "cell-based", "parameters": "expressed in transfected cells; host or cells: HEK293T", "conditions": "read-out: IC50 in cellular assays, VEGFR-2 autophosphorylation", "experimental": "as §1"}, "VEGFR-3 [3]": {"molecular_target": "VEGFR-3 (Homo sapiens, UniProt P35916)", "sequence (P35916 845-1173 limits assumed, species assumed)": "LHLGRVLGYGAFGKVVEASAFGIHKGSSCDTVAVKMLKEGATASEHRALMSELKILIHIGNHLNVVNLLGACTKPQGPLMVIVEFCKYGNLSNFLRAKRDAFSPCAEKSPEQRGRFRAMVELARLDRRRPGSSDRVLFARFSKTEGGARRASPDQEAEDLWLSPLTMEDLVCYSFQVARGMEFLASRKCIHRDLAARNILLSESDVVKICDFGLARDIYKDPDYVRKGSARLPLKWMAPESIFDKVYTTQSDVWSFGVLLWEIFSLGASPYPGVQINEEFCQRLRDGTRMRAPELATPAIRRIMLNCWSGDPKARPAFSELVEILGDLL", "assay": "Viability of Ba/F3 cells dependent on VEGFR-3", "format": "cell-based", "parameters": "fusion proteins consisting of constructs for IL-3 independent survival and either VEGFR-2 or VEGFR-3 kinase domains; expressed in transfected cells; host or cells: Ba/F3 (stably transduced)", "experimental": "Ba/F3 cells were transduced and selected to stably express fusion proteins consisting of constructs for IL-3 independent survival and either VEGFR-2 or VEGFR-3 kinase domains or without the kinase domain. Proliferation and survival of cell lines was dependent on expression of the transcript. Cells in logarithmic-phase growth were harvested and 5 x 10^3 cells were distributed into each well of a 384-well plate in 50 µL of medium. Then, 50 nL of EVT801, SAR401849 or their vehicle solvent were added to appropriate wells. After 48 h, viability was determined by addition of 10 µL CellTiterGlo reagent (Promega). Luminescence was determined as relative light units (RLU) in counts per second."}}, "note": "Where two headings read alike, the source gives them in different places.", "data": [{"molecule": "CCn1c(N)c(-c2ncc[nH]2)c(=O)c2ccc(C#C[C@@](C)(O)COC)nc21", "note": "[EVT801]", "values": [{"measurement": "CD31 IHC, tumor vessels", "setting": "[1]", "result": "decreased the number of vessels while increasing the proportion of larger ones"}, {"measurement": "decrease of tumor weight compared with vehicle", "setting": "[1]; endpoint", "result": 82, "unit": "%"}, {"measurement": "T/C ratio, tumor growth", "setting": "[1]; oral, vs corresponding vehicle", "result": 24, "unit": "%"}, {"measurement": "IC50", "setting": "hLMVEC; read-out: IC50, inhibition of VEGF-A-induced hLMVEC proliferation", "result": 155, "unit": "nM"}, {"measurement": "IC50", "setting": "hLMVEC; read-out: IC50, inhibition of VEGF-C-induced hLMVEC proliferation", "result": 15, "unit": "nM"}, {"measurement": "IC50", "setting": "hLMVEC; read-out: IC50, inhibition of VEGF-D-induced hLMVEC proliferation", "result": 8, "unit": "nM"}, {"measurement": "maximum inhibition of VEGF-A-induced hLMVEC proliferation", "setting": "hLMVEC; VEGF-A", "result": 65, "unit": "%"}, {"measurement": "maximum inhibition of VEGF-C-induced hLMVEC proliferation", "setting": "hLMVEC; VEGF-C", "result": 74, "unit": "%"}, {"measurement": "maximum inhibition of VEGF-D-induced hLMVEC proliferation", "setting": "hLMVEC; VEGF-D", "result": 100, "unit": "%"}, {"measurement": "T/C ratio, tumor growth", "setting": "BNL-R3 tumors; 10 mg/kg twice per day", "result": 31, "unit": "%"}, {"measurement": "decrease of number of vessels", "setting": "BNL-R3 tumors; 10 mg/kg twice per day", "result": 60, "unit": "%"}, {"measurement": "decrease of total vessel surface", "setting": "BNL-R3 tumors; 10 mg/kg twice per day", "result": 35, "unit": "%"}, {"measurement": "T/C ratio, tumor growth", "setting": "BNL-R3 tumors; 30 mg/kg twice per day", "result": 10, "unit": "%"}, {"measurement": "decrease of number of vessels", "setting": "BNL-R3 tumors; 30 mg/kg twice per day", "result": 83, "unit": "%"}, {"measurement": "decrease of total vessel surface", "setting": "BNL-R3 tumors; 30 mg/kg twice per day", "result": 29, "unit": "%"}, {"measurement": "tumor hypoxia", "setting": "BNL-R3 tumors; both doses, 10 and 30 mg/kg twice per day", "result": "decreased hypoxia"}, {"measurement": "infiltration of CD3+ cells in the tumor", "setting": "BNL-R3 tumors; endpoint", "result": "increased"}, {"measurement": "IC50", "setting": "VEGFR-3 [2]", "result": 151, "unit": "nM"}, {"measurement": "IC50", "setting": "ERK1/2 phosphorylation", "result": 13, "unit": "nM"}, {"measurement": "IC50", "setting": "VEGFR-2", "result": 260, "unit": "nM"}, {"measurement": "IC50", "setting": "VEGFR-3 [3]", "result": 24, "unit": "nM"}]}]}
